According to patent publication US20060270643A1, “Hyfroxyflutamide induced pathways related to androgen receptor negative prostate cancer cells” (priority 2002, published 2006):
“Also recorded” adds a separate entry of the source.

What was measured:
[1] = target: T1, AR (Homo sapiens, UniProt P10275); experiment: AR/DHT mediated PSA transcriptional activity (luciferase reporter) in DU145 cells; format: cell-based; details: 1 μM of HF, 1 nM DHT, DU145 cells cotransfected with AR
T1 sequence (P10275 1-920): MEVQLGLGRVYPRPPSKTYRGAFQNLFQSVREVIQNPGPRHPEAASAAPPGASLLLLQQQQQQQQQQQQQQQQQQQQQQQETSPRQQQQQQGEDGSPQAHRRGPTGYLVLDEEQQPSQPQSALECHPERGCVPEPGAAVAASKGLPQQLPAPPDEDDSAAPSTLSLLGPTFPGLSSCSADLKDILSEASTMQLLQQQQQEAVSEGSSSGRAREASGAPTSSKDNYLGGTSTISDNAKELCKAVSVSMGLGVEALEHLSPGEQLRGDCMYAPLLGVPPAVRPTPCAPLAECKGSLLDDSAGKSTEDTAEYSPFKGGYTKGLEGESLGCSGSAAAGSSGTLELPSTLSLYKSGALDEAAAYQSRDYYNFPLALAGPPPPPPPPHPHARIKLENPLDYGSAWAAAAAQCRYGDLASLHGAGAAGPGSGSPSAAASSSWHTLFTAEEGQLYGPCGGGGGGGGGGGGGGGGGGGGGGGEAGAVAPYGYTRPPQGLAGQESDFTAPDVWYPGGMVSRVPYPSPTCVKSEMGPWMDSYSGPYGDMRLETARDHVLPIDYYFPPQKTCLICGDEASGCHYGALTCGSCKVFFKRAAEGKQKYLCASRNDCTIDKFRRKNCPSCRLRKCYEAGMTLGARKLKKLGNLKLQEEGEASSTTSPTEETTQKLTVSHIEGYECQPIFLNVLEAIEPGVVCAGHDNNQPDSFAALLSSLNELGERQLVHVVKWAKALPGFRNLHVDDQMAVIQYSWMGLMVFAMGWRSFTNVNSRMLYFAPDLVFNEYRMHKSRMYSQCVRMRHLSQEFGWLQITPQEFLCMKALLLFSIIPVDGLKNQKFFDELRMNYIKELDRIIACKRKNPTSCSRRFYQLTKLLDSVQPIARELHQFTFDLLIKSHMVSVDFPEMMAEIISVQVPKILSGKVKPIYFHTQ

[2] = tested on: MAP kinase in CWR22 cells; experiment: Immunoblot of phospho-ERK1/2 in CWR22 cells; format: cell-based, human; details: 15 mins
[3] = tested on: p44/42 MAP kinase (ERK1 and 2); experiment: Immunoblot of phosphorylated p44/42 MAP kinase in DU145 cells; format: cell-based, human
Method: 7. […] (A) DU145 cells were grown in 100 mm dishes and serum-starved for 24 hours. The cells were lysed on ice. Equal amounts of cell lysate were analyzed by 12% SDS-PAGE and subsequent immunoblotted with anti-phospho ERK1/2 and anti-ERK1/2 antibodies. (B) Different cell lines, at 70 to 80% confluence, were lysed and immunoblotted with anti-AR polyclonal antibody, NH27. (C) DU145 cells were pre-incubated with MEK1/2 inhibitor U0126, or U0124 before HF, EGF, and ethanol treatment. Cells were lysed and immunoblotted with anti-phospho ERK1/2 and anti-ERK1/2 antibodies. (D) CWR2 and (E) PC3-AR cells were grown in 100 mm dishes and serum-starved for 24 hours. The cells were treated with HF, EGF or ethanol vehicle for 15 mins and immunoblotted with anti-phospho-ERK1/2 and anti-ERK1/2 antibodies. […] MMTV-ARE-Luc reporter plasmid was cotransfected with or without pSG5AR into DU145 cells. After 18 hours, cells were treated with 1 nM DHT, 1 μM HF or both for another 18 hours, and then harvested. Cell lysates were collected and assayed for the luciferase activity.
9. […] After 15 min treatment, cells were lysed and immunoblotted with anti-phospho ERK1/2 and antiERK1/2 antibodies. […] EGFR was immunoprecipitated from the cell lysates, and their phosphotyrosine level was determined by anti-phosphotyrosine antibody. All the results were visualized using enhanced chemiluminescence.
198. This assay uses a polyclonal antibody specific against the activated p44/42 MAP kinases (Cell Signaling Technology, Beverly, Mass.), which detects p44 and p42 MAP kinase (ERK1 and 2) only when catalytically activated by dual phosphorylation at Thr202 and Tyr204. DU145 cells were seeded at 1×10^5 cells per 100 mm plate and allowed to attach overnight and then the media were replaced with serum-free DMEM media for 24 hours. The cells were pre-treated with MAP kinase inhibitors, EGFR antibodies, or cycloheximide for 1 hour and followed by HF, EGF, or vehicle treatment. Cells were washed twice with PBS, harvested at indicated times, and lyzed with RIPA buffer for 30 min on ice. The protein concentrations were determined by Bradford assay, and equal amount of protein was resolved by SDS-PAGE. Gels were transferred, immunoblotted with p44/42 MAP kinase antibody (1/1000), and then incubated with secondary antibody. Proteins were visualized by the enhanced chemiluminescence system (NEN™ Life Science Products, Boston, Mass.). P44/42 MAP kinase (total ERK1/2) was blotted as a control.

[4] = tested on: MAP kinase in PC-3 stably transfected with AR (PC3-AR2); experiment: Immunoblot of phospho-ERK1/2 in PC3-AR2 cells; format: cell-based, human; details: 15 mins
[5] = tested on: DU145 cells; experiment: Cell proliferation assay (hemacytometer counting); format: cell-based, human
Method: 10. […] (A) DU145 cells were seeded in 10% FBS DMEM medium and 24 hours later cells were changed to serum free medium. 48 hours later changed the medium to 0.5% FBS medium and treated with ethanol, HF, or EGF. Every 24 hours, the cells were counted by hemacytometer. […]. […] (B) DU145 cells were seeded and transfected with anti-sense oligonucleotide of Ras (IRIS 2503: 5′-[…]-3′), Raf (IIUS: 5132:5′-[…]-3′) and HIV (5′-[…]-3′) (Chen, G., Oh, S., Monia B. P., and Stacey, D. W., J. Biol. Chem., 271: 28259-28265, 1996, Monia, B. P., et al., Proc. Natl. Acad. Sci. USA, 93: 15481-15484, 1996.) by SuperFect (Qiagen). 24 hour after serum starvation, we changed the cells to medium containing 0.5% FBS, and treated the cells as described in A. Cells were counted by hemacytometer every 24 hours. The cell lysate were blotted with anti-H-Ras and Raf antibodies and β-actin was blotted for loading control.
199. DU145 cells were seeded at 2×10^4/ml on 35 mm plates and allowed to attach overnight. Cells were kept in serum-free DMEM medium for 24 hours, and then media were replaced with DMEM-0.5% FBS and treated as indicated. Cells were trypsinized and counted with a hemacytometer at different times after treatments. For the antisense oligonuleotide experiments, cells were incubated with a fixed ratio of oligonucleotide versus SuperFect (2.5 μl of SuperFect per 100 nM oligo) for 4 hours and then the oligo-containing medium was replaced with DMEM-0.5% FBS. Cells were trypsinized and counted by hemacytometer at indicated times.

[6] = HF at 1 μM, serum-starved DU145 cells

## CC(C)(O)C(=O)Nc1ccc([N+](=O)[O-])c(C(F)(F)F)c1 [HF, hydroxyflutamide]
[1]
  DHT induced PSA-Luc activity: represses DHT induced PSA-Luc activity
[2]
  MAP kinase activation: activates MAP kinase
[3]
  activation of MAP kinase as compared to EGF activation: relatively weak
[3]; DU145 cells
  total MAP kinase (ERK1/2) protein expression: no influence
[3]; [6]
  time to activate MAP kinase: ≤ 15 min
  time to reach maximum MAP kinase activation: 30 min
[4]
  MAP kinase activation: activates MAP kinase
[5]; cells maintained in 10% FBS medium (data not shown)
  cell proliferation: no significant stimulation of cell proliferation
[5]; low serum (0.5% FBS) after serum starvation
  cell proliferation: stimulate the DU 145 cell growth significant; also recorded: can promote cell proliferation
